Data on 13 compounds can be found in patent publication US20240217969A1, “SUBSTITUTED PYRROLE CARBOXAMIDES, PROCESS FOR THEIR PREPARATION AND THEIR USE AS KINASE INHIBITORS” (priority 2021, published 2024).

For one series, the target named is Cdc7 (Homo sapiens, UniProt O00311). Description: Cdc7 biochemical assay, ADPGlo assay format. The procedure: The biochemical activity of compounds was determined by incubation with specific enzymes and substrate, followed by quantification of the ADP product. Compounds were 4-fold serially diluted from 10 to 0.0006 uM; in the case of the pre-incubation step, the enzyme is added to the inhibitor solution and the mixture is left to incubate for 30 minutes at room temperature (r.t.). The reaction started with the addition of the substrate and the ATP, when the enzyme was already present in the preincubation step, or substrate, ATP and enzyme when the preincubation step was not present. The concentrations of ATP, substrate and reaction buffer are described above. The assays were run in a robotized format on 384-well plates. […] At the end of the incubation time, an equal volume of ADPGlo Reagent 1 (Promega) was added to stop the reaction and to remove all unreacted ATP. After 60 minutes, an equal volume of ADPGlo Reagent 2 (Promega) was added to convert ADP in ATP and then ATP in light by luciferase reaction.
y=bottom+(top−bottom)/(1+10^((log IC50−x)*slope))
where x is the logarithm of the inhibitor concentration, y is the response; y starts at bottom and goes to top with a sigmoid shape.

Series [1] concerns the target T1, aldehyde oxidases (human liver cytosol) (Homo sapiens, UniProt Q06278).
T1 construct: added to human liver cytosol (1 mg/mL protein content); from tissue; host or cells: human liver cytosol
The class given is in vitro ADME. To be noted: human liver cytosol 1 mg/mL, 1 μM compound; for HLC % remaining (1 h incub.): 60 min incubation; for HLC % remaining (1 h incub.) / HLC T½ min: pH 7.4, 37° C.; for IntCl (Intrinsic Clearance): half-life approach. The method, then: The aldehyde oxidases involvement in the metabolism of the test item was determined by comparison of the intrinsic clearance values in the presence and absence of aldehyde oxidases inhibitor hydralazine hydrochloride. The purpose of the study was to evaluate the in-vitro intrinsic clearance, the metabolic stability towards aldehyde oxidases (AO) activity and the metabolism of the test item in human liver cytosol. The intrinsic clearance was determined using the half-life approach, by measuring the substrate disappearance along 60 minutes incubation with human liver cytosol. Incubations were performed at the concentration of 1 μM. […] HPLC-MS/MS was used for the detection of the compound left over during the incubation. For intrinsic clearance determination samples were analyzed by high performance liquid chromatography (HPLC) on-line with mass spectrometry (MS) equipment. For the determination of aldehyde oxidases activity (i.e. positive control) of cytosol, phthalazine was incubated with human liver cytosol in presence and absence of the aldehyde oxidases inhibitor. On the day of the incubation, the compound was dissolved in DMSO at the concentration of 10 mM. Aliquots of this solution were added to the test system to a final concentration of […]. The percentage of DMSO in the final incubates was […]. Aliquots of the test item were added to human liver cytosol (1 mg/mL protein content) in Dulbecco's buffer, pH 7.4 at 37° C., to reach final concentration of 1 μM. Incubations were performed in a 48-well plate, under shaking. At 0, 5, 10, 20, 30 and 60 minutes incubation, 50 μL aliquots of the incubate were sampled, poured in 80 μL of ice-cold acetonitrile and 20 μL of 1 μM warfarin in acetonitrile (injection control) and centrifuged at 2500 rpm for 20 minutes. The supernatant was immediately analysed by LC-MS/MS.
The test item was incubated in parallel, in duplicate, at the concentration of 1 μM in Dulbecco's buffer, pH 7.4 for 60 min at 37° C. in the presence of 10 μM hydralazine hydrochloride (aldehyde oxidases inhibitor).
The chemical stability of the test item was checked in parallel by incubating the test item in single at the concentration of 1 μM in Dulbecco's buffer, pH 7.4 for 60 min at 37° C. (negative control).
The intrinsic clearance (CLint) was calculated using the half-life approach. Half-life and CLint were determined from the concentration (area counts) remaining at the different sampling points using the LC-MS/MS method. By plotting the natural logarithmic area of the compound remaining against the time, the slope was calculated by linear regression analysis and converted into the half-life (t½) and CLint expressed as μL/min/mg protein according to the following formulae: […]

T1 sequence (Q06278 whole entry): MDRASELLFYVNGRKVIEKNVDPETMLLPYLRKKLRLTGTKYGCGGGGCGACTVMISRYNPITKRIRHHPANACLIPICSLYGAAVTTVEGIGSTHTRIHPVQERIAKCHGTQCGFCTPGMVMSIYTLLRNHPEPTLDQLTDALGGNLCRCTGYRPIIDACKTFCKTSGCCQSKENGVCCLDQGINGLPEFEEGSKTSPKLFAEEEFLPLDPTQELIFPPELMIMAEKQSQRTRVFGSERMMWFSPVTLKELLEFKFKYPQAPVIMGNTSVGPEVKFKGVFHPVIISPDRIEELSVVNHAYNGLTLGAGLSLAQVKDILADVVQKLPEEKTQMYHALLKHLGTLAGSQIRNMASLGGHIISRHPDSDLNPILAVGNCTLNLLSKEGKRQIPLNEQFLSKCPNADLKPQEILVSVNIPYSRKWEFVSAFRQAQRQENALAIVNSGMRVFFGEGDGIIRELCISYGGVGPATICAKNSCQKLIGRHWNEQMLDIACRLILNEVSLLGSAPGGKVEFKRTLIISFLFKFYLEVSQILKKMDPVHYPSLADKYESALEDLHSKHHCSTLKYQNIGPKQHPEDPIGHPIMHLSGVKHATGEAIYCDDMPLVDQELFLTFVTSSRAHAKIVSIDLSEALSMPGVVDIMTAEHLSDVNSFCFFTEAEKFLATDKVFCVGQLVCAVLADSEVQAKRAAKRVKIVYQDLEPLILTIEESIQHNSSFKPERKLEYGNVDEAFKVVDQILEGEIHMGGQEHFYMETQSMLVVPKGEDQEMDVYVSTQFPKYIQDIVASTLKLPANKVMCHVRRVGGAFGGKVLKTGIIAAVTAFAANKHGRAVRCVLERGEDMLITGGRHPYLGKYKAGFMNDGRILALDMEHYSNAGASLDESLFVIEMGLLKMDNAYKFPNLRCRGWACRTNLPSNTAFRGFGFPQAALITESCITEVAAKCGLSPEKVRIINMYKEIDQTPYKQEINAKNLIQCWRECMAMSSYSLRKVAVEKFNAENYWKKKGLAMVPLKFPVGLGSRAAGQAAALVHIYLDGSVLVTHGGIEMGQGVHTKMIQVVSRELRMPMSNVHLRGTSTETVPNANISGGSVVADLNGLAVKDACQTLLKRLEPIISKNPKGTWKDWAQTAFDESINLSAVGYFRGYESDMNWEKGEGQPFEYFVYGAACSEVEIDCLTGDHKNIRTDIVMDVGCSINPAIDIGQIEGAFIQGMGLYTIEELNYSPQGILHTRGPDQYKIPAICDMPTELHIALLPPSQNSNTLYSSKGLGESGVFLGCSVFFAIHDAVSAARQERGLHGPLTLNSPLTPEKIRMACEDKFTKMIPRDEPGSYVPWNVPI
Cdc7, sequence (O00311 whole entry): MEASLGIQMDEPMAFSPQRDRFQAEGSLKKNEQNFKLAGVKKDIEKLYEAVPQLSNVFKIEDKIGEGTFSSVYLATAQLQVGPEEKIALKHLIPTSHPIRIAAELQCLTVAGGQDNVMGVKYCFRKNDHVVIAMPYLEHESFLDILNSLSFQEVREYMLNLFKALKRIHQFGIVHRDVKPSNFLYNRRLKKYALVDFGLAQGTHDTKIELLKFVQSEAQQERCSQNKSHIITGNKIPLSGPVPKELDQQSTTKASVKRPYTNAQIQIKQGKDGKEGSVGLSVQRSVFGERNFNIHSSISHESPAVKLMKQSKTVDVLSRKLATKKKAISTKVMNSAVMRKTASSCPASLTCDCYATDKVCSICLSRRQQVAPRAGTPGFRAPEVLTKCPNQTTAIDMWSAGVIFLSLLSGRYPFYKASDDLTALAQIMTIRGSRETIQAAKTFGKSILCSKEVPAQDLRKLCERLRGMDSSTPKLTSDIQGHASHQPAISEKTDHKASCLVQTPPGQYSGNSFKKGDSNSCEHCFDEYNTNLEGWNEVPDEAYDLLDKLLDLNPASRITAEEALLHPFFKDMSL
Cdc7, sequence (Q9UBU7 whole entry partner): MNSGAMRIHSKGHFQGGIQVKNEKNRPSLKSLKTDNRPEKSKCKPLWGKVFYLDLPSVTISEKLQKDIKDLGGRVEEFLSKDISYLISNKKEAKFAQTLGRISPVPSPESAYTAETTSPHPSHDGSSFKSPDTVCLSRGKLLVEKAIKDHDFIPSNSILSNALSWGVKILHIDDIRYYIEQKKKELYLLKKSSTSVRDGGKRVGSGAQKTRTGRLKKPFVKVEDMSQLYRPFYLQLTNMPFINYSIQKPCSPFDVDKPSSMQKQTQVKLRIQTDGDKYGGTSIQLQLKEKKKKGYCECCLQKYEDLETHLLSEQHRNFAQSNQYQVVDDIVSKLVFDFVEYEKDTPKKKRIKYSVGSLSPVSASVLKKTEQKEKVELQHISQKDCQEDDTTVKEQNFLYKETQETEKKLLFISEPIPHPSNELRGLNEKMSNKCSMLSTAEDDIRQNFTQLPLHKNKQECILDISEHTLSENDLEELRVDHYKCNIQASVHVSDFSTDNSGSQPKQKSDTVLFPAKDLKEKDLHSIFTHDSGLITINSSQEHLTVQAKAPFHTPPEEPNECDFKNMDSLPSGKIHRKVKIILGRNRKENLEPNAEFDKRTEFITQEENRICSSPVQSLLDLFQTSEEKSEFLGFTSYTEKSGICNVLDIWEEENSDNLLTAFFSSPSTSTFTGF

As usually defined, the IC50 is the concentration at which inhibition is half-maximal. A lower IC50 goes with inhibition by little substance. Take `COc1ccc(-c2[nH]c(-c3ccnc4[nH]ccc34)cc2C(N)=O)c(C(F)(F)F)c1` [comp 16, 2-[4-methoxy-2-(trifluoromethyl)phenyl]-5-(1H-pyrrolo[2,3-b]pyridin-4-yl)-1H-pyrrole-3-carboxamide]: at Cdc7, half-maximal inhibition (IC50) was put at 0.006 µM. On the same count and under the same terms, the figure for `NC(=O)c1cc(-c2ccnc3[nH]ccc23)[nH]c1-c1ccc(OC(F)F)cc1Cl` [comp 17, 2-[2-chloro-4-(difluoromethoxy)phenyl]-5-(1H-pyrrolo[2,3-b]pyridin-4-yl)-1H-pyrrole-3-carboxamide] is 0.001 µM; for `NC(=O)c1cc(-c2ccnc3[nH]ccc23)[nH]c1-c1ccc(Cl)c(Cl)c1` [comp 18, 2-(3,4-dichlorophenyl)-5-(1H-pyrrolo[2,3-b]pyridin-4-yl)-1H-pyrrole-3-carboxamide] it is 0.031 µM; for `NC(=O)c1cc(-c2ccnc3[nH]ccc23)[nH]c1-c1ccc(F)c(F)c1` [comp 19, 2-(3,4-difluorophenyl)-5-(1H-pyrrolo[2,3-b]pyridin-4-yl)-1H-pyrrole-3-carboxamide] it is 0.015 µM. Still for that read-out and setting: to `CCOc1cccc(-c2[nH]c(-c3ccnc4[nH]ccc34)cc2C(N)=O)c1F` [comp 20, 2-(3-ethoxy-2-fluorophenyl)-5-(1H-pyrrolo[2,3-b]pyridin-4-yl)-1H-pyrrole-3-carboxamide] belongs 0.005 µM. Compound `Cc1ccc(-c2[nH]c(-c3ccnc4[nH]ccc34)cc2C(N)=O)cc1[N+](=O)[O-]` [comp 21, 2-(4-methyl-3-nitrophenyl)-5-(1H-pyrrolo[2,3-b]pyridin-4-yl)-1H-pyrrole-3-carboxamide] gave an IC50 against Cdc7 of 0.034 µM. Against the preceding compound, the IC50 is about 6.8-fold higher. Same read-out and setting: to `NC(=O)c1cc(-c2[nH]c(-c3ccnc4[nH]ccc34)cc2C(N)=O)ccc1F` [comp 22, 2-(3-carbamoyl-4-fluorophenyl)-5-(1H-pyrrolo[2,3-b]pyridin-4-yl)-1H-pyrrole-3-carboxamide] belongs 0.027 µM; to `Cc1ccc(-c2[nH]c(-c3ccnc4[nH]ccc34)cc2C(=O)NCCN(C)C)c(F)c1` [comp 24, N-[2-(dimethylamino)ethyl]-2-(2-fluoro-4-methylphenyl)-5-(1H-pyrrolo[2,3-b]pyridin-4-yl)-1H-pyrrole-3-carboxamide], 0.741 µM; to `Cc1ccc(-c2[nH]c(-c3ccnc4[nH]ccc34)cc2C(=O)N[C@H]2CCCC[C@H]2N)c(F)c1` [comp 26, N-[(1S,2R)-2-aminocyclohexyl]-2-(2-fluoro-4-methylphenyl)-5-(1H-pyrrolo[2,3-b]pyridin-4-yl)-1H-pyrrole-3-carboxamide], 0.012 µM. The compound `Cc1ccc(-c2[nH]c(-c3ccnc4[nH]ccc34)cc2C(=O)NCc2ccco2)c(F)c1` [comp 27, 2-(2-fluoro-4-methylphenyl)-N-(furan-2-ylmethyl)-5-(1H-pyrrolo[2,3-b]pyridin-4-yl)-1H-pyrrole-3-carboxamide] gave an IC50 on Cdc7 of 0.061 µM.

Take `NC(=O)c1cc(-c2csc(N)n2)[nH]c1-c1ccc(Cl)cc1Cl` [compound 45, 5-(2-amino-1,3-thiazol-4-yl)-2-(2,4-dichlorophenyl)-1H-pyrrole-3-carboxamide]: in series [1], the “HLC % remaining (1 h incub.)” value was determined as 98%, the “IntCl (Intrinsic Clearance)” value turned out to be 2.9 μL/min/mg protein and the “HLC T½ min” value was determined as 3.98 h.

In the case of `Cc1ccc(-c2[nH]c(-c3c[nH]nc3C)cc2C(N)=O)c(F)c1` [compound 52, 2-(2-fluoro-4-methylphenyl)-5-(3-methyl-1H-pyrazol-4-yl)-1H-pyrrole-3-carboxamide], in series [1], the “HLC % remaining (1 h incub.)” value worked out at 100%, the “IntCl (Intrinsic Clearance)” value was determined as 2.9 μL/min/mg protein and the “HLC T½ min” value was 3.98 h. Consider `Cc1ccc(-c2[nH]c(-c3ccnc4[nH]ccc34)cc2C(N)=O)c(F)c1` [compound 53, 2-(2-fluoro-4-methylphenyl)-5-(1H-pyrrolo[2,3-b]pyridin-4-yl)-1H-pyrrole-3-carboxamide], for which, in series [1], the “HLC % remaining (1 h incub.)” value is listed as 100%, the “IntCl (Intrinsic Clearance)” value came out at 2.9 μL/min/mg protein and the “HLC T½ min” value came to 3.98 h.
